Data published in the supplement of paper PMC8741786.
Converted amounts (≈) assume the structure as drawn.

Experiments:
Neisseria gonorrhoeae = experiment: minimum inhibitory concentration (ETEST); conditions: isolate id (sample isolate): 19113052_3; population: MSM; antibiotic use in previous 6 months: No
Procedure: (§1)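 Oropharyngeal Neisseria isolates from MSM and employees in Belgium were identified to species by MALDI-TOF MS. MICs of azithromycin, ceftriaxone and ciprofloxacin were determined by ETEST on GC agar after 24 h at 36.5 °C and 5-7% CO2, in mg/L. Values beyond the strip range are reported as >256 (azithromycin) or <0.016 (ceftriaxone); isolates that did not grow are NA.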

[1] = tested on: Neisseria subflava/flavescens/perflava; experiment: minimum inhibitory concentration (ETEST)
Procedure: as §1

CO/N=C(\C(=O)N[C@@H]1C(=O)N2C(C(=O)O)=C(CSc3nc(=O)c(O)nn3C)CS[C@H]12)c1csc(N)n1 [ceftriaxone]
Conditions | minimum inhibitory concentration [µg/mL]
Neisseria gonorrhoeae | < 0.016

[1]
Conditions | minimum inhibitory concentration [µg/mL]
isolate id (sample isolate): 19041762_1, population: MSM, antibiotic use in previous 6 months: Yes | 0.016 (≈ 0.0289 µM)
isolate id (sample isolate): 19041762_1.1, population: MSM, antibiotic use in previous 6 months: Yes | 0.023 (≈ 0.0415 µM)
isolate id (sample isolate): 19041780_1, population: MSM, antibiotic use in previous 6 months: Yes | 0.064 (≈ 0.115 µM)
isolate id (sample isolate): 19042150_1, population: MSM, antibiotic use in previous 6 months: Yes | 0.5 (≈ 0.902 µM)
isolate id (sample isolate): 19042150_3, population: MSM, antibiotic use in previous 6 months: Yes | 0.047 (≈ 0.0847 µM)
isolate id (sample isolate): 19042756_1, population: MSM, antibiotic use in previous 6 months: Yes | 0.023 (≈ 0.0415 µM)
isolate id (sample isolate): 19042756_2, population: MSM, antibiotic use in previous 6 months: Yes | 0.023 (≈ 0.0415 µM)
isolate id (sample isolate): 19043201_1.1, population: MSM, antibiotic use in previous 6 months: No | 0.047 (≈ 0.0847 µM)
isolate id (sample isolate): 19043201_2.1, population: MSM, antibiotic use in previous 6 months: No | 1 (≈ 1.8 µM)
isolate id (sample isolate): 19043201_3, population: MSM, antibiotic use in previous 6 months: No | 0.064 (≈ 0.115 µM)
isolate id (sample isolate): 19043274_3, population: MSM, antibiotic use in previous 6 months: Yes | 0.064 (≈ 0.115 µM)
isolate id (sample isolate): 19050474_1, population: MSM, antibiotic use in previous 6 months: No | 0.047 (≈ 0.0847 µM)
isolate id (sample isolate): 19050514_1, population: MSM, antibiotic use in previous 6 months: Yes | 0.047 (≈ 0.0847 µM)
isolate id (sample isolate): 19050949_1, population: MSM, antibiotic use in previous 6 months: No | 0.032 (≈ 0.0577 µM)
isolate id (sample isolate): 19050949_2, population: MSM, antibiotic use in previous 6 months: No | 0.023 (≈ 0.0415 µM)
isolate id (sample isolate): 19050949_2.1, population: MSM, antibiotic use in previous 6 months: No | 0.016 (≈ 0.0289 µM)
isolate id (sample isolate): 19051904_2, population: MSM, antibiotic use in previous 6 months: Yes | 0.064 (≈ 0.115 µM)
isolate id (sample isolate): 19051904_3, population: MSM, antibiotic use in previous 6 months: Yes | 0.064 (≈ 0.115 µM)
isolate id (sample isolate): 19052394_1, population: MSM, antibiotic use in previous 6 months: Yes | 0.032 (≈ 0.0577 µM)
isolate id (sample isolate): 19052394_1.1, population: MSM, antibiotic use in previous 6 months: Yes | 0.023 (≈ 0.0415 µM)
isolate id (sample isolate): 19060089_1, population: MSM, antibiotic use in previous 6 months: Yes | 0.047 (≈ 0.0847 µM)
isolate id (sample isolate): 19062994_1, population: MSM, antibiotic use in previous 6 months: Yes | 0.047 (≈ 0.0847 µM)
isolate id (sample isolate): Co000761_2, population: general population, antibiotic use in previous 6 months: No | 0.023 (≈ 0.0415 µM)
isolate id (sample isolate): Co000761_3, population: general population, antibiotic use in previous 6 months: No | 0.032 (≈ 0.0577 µM)
isolate id (sample isolate): Co000761_5, population: general population, antibiotic use in previous 6 months: No | 0.016 (≈ 0.0289 µM)
isolate id (sample isolate): Co000761_6, population: general population, antibiotic use in previous 6 months: No | 0.016 (≈ 0.0289 µM)
isolate id (sample isolate): Co000762_3, population: general population, antibiotic use in previous 6 months: No | 0.094 (≈ 0.169 µM)
isolate id (sample isolate): Co000762_4, population: general population, antibiotic use in previous 6 months: No | 0.094 (≈ 0.169 µM)
isolate id (sample isolate): Co000763_2, population: general population, antibiotic use in previous 6 months: No | 0.032 (≈ 0.0577 µM)
isolate id (sample isolate): Co000764_1, population: general population, antibiotic use in previous 6 months: No | 0.032 (≈ 0.0577 µM)
isolate id (sample isolate): Co000764_2, population: general population, antibiotic use in previous 6 months: No | 0.023 (≈ 0.0415 µM)
isolate id (sample isolate): Co000765_2, population: general population, antibiotic use in previous 6 months: No | 0.047 (≈ 0.0847 µM)
isolate id (sample isolate): Co000765_3, population: general population, antibiotic use in previous 6 months: No | 0.032 (≈ 0.0577 µM)
isolate id (sample isolate): Co000765_4, population: general population, antibiotic use in previous 6 months: No | 0.023 (≈ 0.0415 µM)
isolate id (sample isolate): Co000766_1, population: general population, antibiotic use in previous 6 months: No | 0.023 (≈ 0.0415 µM)
isolate id (sample isolate): Co000766_3, population: general population, antibiotic use in previous 6 months: No | 0.032 (≈ 0.0577 µM)
isolate id (sample isolate): Co000767_1, population: general population, antibiotic use in previous 6 months: No | 0.023 (≈ 0.0415 µM)
isolate id (sample isolate): Co000767_2, population: general population, antibiotic use in previous 6 months: No | 0.023 (≈ 0.0415 µM)
isolate id (sample isolate): Co000767_4, population: general population, antibiotic use in previous 6 months: No | 0.023 (≈ 0.0415 µM)
isolate id (sample isolate): Co000767_5, population: general population, antibiotic use in previous 6 months: No | 0.064 (≈ 0.115 µM)
isolate id (sample isolate): Co000767_6, population: general population, antibiotic use in previous 6 months: No | 0.023 (≈ 0.0415 µM)
isolate id (sample isolate): Co000767_7, population: general population, antibiotic use in previous 6 months: No | 0.047 (≈ 0.0847 µM)
isolate id (sample isolate): Co000768_1, population: general population, antibiotic use in previous 6 months: No | 0.023 (≈ 0.0415 µM)
isolate id (sample isolate): Co000768_2, population: general population, antibiotic use in previous 6 months: No | 0.023 (≈ 0.0415 µM)
isolate id (sample isolate): Co000769_1, population: general population, antibiotic use in previous 6 months: No | 0.047 (≈ 0.0847 µM)
isolate id (sample isolate): Co000769_2, population: general population, antibiotic use in previous 6 months: No | 0.023 (≈ 0.0415 µM)
isolate id (sample isolate): Co000769_4, population: general population, antibiotic use in previous 6 months: No | 0.064 (≈ 0.115 µM)
isolate id (sample isolate): Co000770_2, population: general population, antibiotic use in previous 6 months: No | 0.032 (≈ 0.0577 µM)
isolate id (sample isolate): Co000770_4, population: general population, antibiotic use in previous 6 months: No | 0.032 (≈ 0.0577 µM)
